The record followed here is patent US9255100B2 (BAYER INTELLECTUAL PROPERTY GMBH, priority 2010, dated 2016).

As a reminder, the IC50 is the concentration that inhibits the measured activity by half.

One assay concerns the target T1, N-terminally GST-tagged human full length recombinant Mps-1 kinase (Homo sapiens, UniProt P33981).
T1 construct: N-terminally GST-tagged human full length recombinant Mps-1 kinase; purchased Invitrogen, Karslruhe, Germany PV4071
T1 sequence (P33981 1-857): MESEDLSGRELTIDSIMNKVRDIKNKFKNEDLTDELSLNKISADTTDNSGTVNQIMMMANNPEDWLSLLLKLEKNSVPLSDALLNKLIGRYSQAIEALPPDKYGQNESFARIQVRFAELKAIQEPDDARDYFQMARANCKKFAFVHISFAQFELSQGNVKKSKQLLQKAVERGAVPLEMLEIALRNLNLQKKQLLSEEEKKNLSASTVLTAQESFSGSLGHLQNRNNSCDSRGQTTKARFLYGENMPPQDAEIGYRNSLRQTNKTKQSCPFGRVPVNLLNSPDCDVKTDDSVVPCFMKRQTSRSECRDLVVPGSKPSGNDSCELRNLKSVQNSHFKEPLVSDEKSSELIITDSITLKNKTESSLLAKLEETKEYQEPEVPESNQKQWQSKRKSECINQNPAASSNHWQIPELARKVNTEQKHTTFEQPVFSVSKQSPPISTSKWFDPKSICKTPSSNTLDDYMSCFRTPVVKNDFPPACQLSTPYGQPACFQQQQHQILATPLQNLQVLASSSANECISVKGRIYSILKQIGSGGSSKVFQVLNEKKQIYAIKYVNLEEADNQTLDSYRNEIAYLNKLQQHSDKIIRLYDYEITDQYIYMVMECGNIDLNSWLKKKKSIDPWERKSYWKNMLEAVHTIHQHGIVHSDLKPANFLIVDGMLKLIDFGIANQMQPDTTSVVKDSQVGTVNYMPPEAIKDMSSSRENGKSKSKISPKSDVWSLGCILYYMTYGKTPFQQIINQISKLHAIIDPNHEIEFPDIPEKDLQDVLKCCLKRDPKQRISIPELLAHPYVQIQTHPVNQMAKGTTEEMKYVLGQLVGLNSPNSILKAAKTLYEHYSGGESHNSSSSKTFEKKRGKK
Briefly: Mps-1 kinase assay (TR-FRET). Type of assay: biochemical. To be noted: 10 μM ATP, 1 μM peptide substrate, 60 min at 22° C., read-out: Mps1 IC50. Here is the method: The human kinase Mps-1 phosphorylates a biotinylated substrate peptide. Detection of the phosphorylated product is achieved by time-resolved fluorescence resonance energy transfer (TR-FRET) from Europium-labelled anti-phospho-Serine/Threonine antibody as donor to streptavidin labelled with cross-linked allophycocyanin (SA-XLent) as acceptor. Compounds are tested for their inhibition of the kinase activity.
N-terminally GST-tagged human full length recombinant Mps-1 kinase (purchased from Invitrogen, Karslruhe, Germany, cat. no PV4071) was used. As substrate for the kinase reaction a biotinylated peptide of the amino-acid sequence […] (C-terminus in amide form, purchased from Biosynthan GmbH, Berlin) was used.
The concentration of Mps-1 in the assay was adjusted to the activity of the enzyme lot and was chosen appropriate to have the assay in the linear range, typical enzyme concentrations were in the range of about 1 nM (final conc. in the 5 μl assay volume).
The resulting mixture was incubated 1 h at 22° C. to allow the binding of the phosphorylated peptide to the anti-phospho(Ser/Thr)-Europium-antibody. Subsequently the amount of phosphorylated substrate was evaluated by measurement of the resonance energy transfer from the Europium-labelled anti-phospho(Ser/Thr) antibody to the Streptavidin-XLent.
With `Cc1cc(-c2cnc3c(NCC4CC[S+]([O-])CC4)cc(Oc4ccc(F)cc4)nn23)ccc1C(=O)NC1CC1` (mixture of isomers) [Example 295B, N-cyclopropyl-4-[6-(4-fluorophenoxy)-8-({[(cis/trans)-1-oxidotetrahydro-2H-thiopyran-4-yl]methyl}amino)imidazo[1,2-b]pyridazin-3-yl]-2-methylbenzamide], the IC50 was 0.2 nM. As to `Cc1cc(-c2cnc3c(NCC4CC[S+]([O-])CC4)cc(Oc4cccc(F)c4)nn23)ccc1C(=O)NC1CC1` (mixture of isomers) [Example 298B, N-cyclopropyl-4-[6-(3-fluorophenoxy)-8-({[(cis/trans)-1-oxidotetrahydro-2H-thiopyran-4-yl]methyl}amino)imidazo[1,2-b]pyridazin-3-yl]-2-methylbenzamide], the IC50 worked out at 0.1 nM.

The same assay, now with this note: Mps1 IC50 [nM], 10 μM ATP, 1 μM peptide substrate, 60 min at 22° C.
As to `CC=C(C)c1cc(NCC(C)(C)O)c2ncc(-c3ccc(-c4cnc(C5CC5)[nH]4)cc3)n2n1` (mixture of isomers) [Example 1, 1-({6-[(2E/Z)-But-2-en-2-yl]-3-[4-(2-cyclopropyl-1H-imidazol-5-yl)phenyl]imidazo[1,2-b]pyridazin-8-yl}amino)-2-methylpropan-2-ol], the IC50 was found to be 61.1 nM. In the case of `CC=Cc1cc(NCC(C)(C)O)c2ncc(-c3ccc(-c4cnc(C5CC5)[nH]4)cc3)n2n1` (mixture of isomers) [Example 2, 1-({3-[4-(2-Cyclopropyl-1H-imidazol-5-yl)phenyl]-6-[(1E/Z)-prop-1-en-1-yl]imidazo[1,2-b]pyridazin-8-yl}amino)-2-methylpropan-2-ol], the IC50 turned out to be 90.5 nM. The same measure, in the same setting: with `CC=Cc1cc(NCCC(F)(F)F)c2ncc(-c3ccc(C(=O)NC4CC4)c(C)c3)n2n1` (mixture of isomers) [Example 23, N-cyclopropyl-2-methyl-4-{6-[(1E/Z)-prop-1-en-1-yl]-8-[(3,3,3-trifluoropropyl)amino]imidazo[1,2-b]pyridazin-3-yl}benzamide] the figure was 2.4 nM; with `CC=Cc1cc(NCC(C)(C)O)c2ncc(-c3ccc(C(=O)NC4CC4)c(C)c3)n2n1` (mixture of isomers) [Example 24, N-cyclopropyl-4-{8-[(2-hydroxy-2-methylpropyl)amino]-6-[(1E/Z)-prop-1-en-1-yl]imidazo[1,2-b]pyridazin-3-yl}-2-methylbenzamide], 23.8 nM; with `Cc1cc(-c2cnc3c(NCC4CC[S+]([O-])CC4)cc(Oc4ccc(Cl)cc4)nn23)ccc1C(=O)NC1CC1` (mixture of isomers) [Example 294B, 4-[6-(4-chlorophenoxy)-8-({[(cis/trans)-1-oxidotetrahydro-2H-thiopyran-4-yl]methyl}amino)imidazo[1,2-b]pyridazin-3-yl]-N-cyclopropyl-2-methylbenzamide], 0.2 nM.

On to `c1cc(-c2cc(NCC3CCCCO3)c3ncc(-c4ccc(-c5cnc(C6CC6)[nH]5)cc4)n3n2)ccn1` (racemic) [Example 29, (RS) 3-[4-(2-Cyclopropyl-1H-imidazol-5-yl)phenyl]-6-(pyridin-4-yl)-N-(tetrahydro-2H-pyran-2-ylmethyl)imidazo[1,2-b]pyridazin-8-amine], for which the IC50 is 80.2 nM. `Cc1cc(-c2cnc3c(NCC4(C)CCCO4)cc(-c4ccncc4)nn23)ccc1C(=O)NC1CC1` (racemic) [Example 30, (RS)—N-cyclopropyl-2-methyl-4-[8-{[(2-methyltetrahydrofuran-2-yl)methyl]amino}-6-(pyridin-4-yl)imidazo[1,2-b]pyridazin-3-yl]benzamide]: the IC50 is 2.1 nM.

As for `Cc1cc(-c2cnc3c(NCC4COCCO4)cc(-c4ccncc4)nn23)ccc1C(=O)NC1CC1` (racemic) [Example 36, (RS)—N-cyclopropyl-4-{8-[(1,4-dioxan-2-ylmethyl)amino]-6-(pyridin-4-yl)imidazo[1,2-b]pyridazin-3-yl}-2-methylbenzamide], the IC50 stood at 3 nM. Turning to `Cc1cc(-c2cnc3c(NCC4CCCCO4)cc(-c4ccncc4)nn23)ccc1C(=O)NC1CC1` (racemic) [Example 37, (RS)—N-cyclopropyl-2-methyl-4-{6-(pyridin-4-yl)-8-[(tetrahydro-2H-pyran-2-ylmethyl)amino]imidazo[1,2-b]pyridazin-3-yl}benzamide], the IC50 is under 1 nM. For `Cc1cc(-c2cnc3c(NCC4CN(C)CCO4)cc(Sc4ccccc4)nn23)ccc1C(=O)NC1CC1` (racemic) [Example 56, (RS)—N-cyclopropyl-2-methyl-4-[8-{[(4-methylmorpholin-2-yl)methyl]amino}-6-(phenylsulfanyl)imidazo[1,2-b]pyridazin-3-yl]benzamide], the IC50 is under 1 nM. The same measure, in the same setting: with `Cc1cc(-c2cnc3c(NCCC(F)(F)F)cc([S+]([O-])c4cccc(F)c4)nn23)ccc1C(=O)NC1CC1` (racemic) [Example 83B, (RS)—N-cyclopropyl-4-{6-[(3-fluorophenyl)sulfinyl]-8-[(3,3,3-trifluoropropyl)amino]imidazo[1,2-b]pyridazin-3-yl}-2-methylbenzamide] the figure was 0.8 nM.

In the case of `Cc1cc(-c2cnc3c(NCC(C)C)cc(SCC4CCCO4)nn23)ccc1C(=O)NC1CC1` (racemic) [Example 194, (RS)—N-cyclopropyl-2-methyl-4-{8-[(2-methylpropyl)amino]-6-[(tetrahydrofuran-2-ylmethyl)sulfanyl]imidazo[1,2-b]pyridazin-3-yl}benzamide], the IC50 was determined as 2.5 nM. `Cc1cc(-c2cnc3c(NCC(O)C(F)(F)F)cc(Cl)nn23)ccc1C(=O)NC1CC1` (racemic) [Example 205, (RS)-4-{6-Chloro-8-[(3,3,3-trifluoro-2-hydroxypropyl)amino]imidazo[1,2-b]pyridazin-3-yl}-N-cyclopropyl-2-methylbenzamide]: the IC50 came to 72.7 nM.

On to `CSc1cc(NCC(O)C(F)(F)F)c2ncc(-c3ccc(C(=O)NC4CC4)c(C)c3)n2n1` (racemic) [Example 206, (RS)N-cyclopropyl-2-methyl-4-{6-(methylsulfanyl)-8-[(3,3,3-trifluoro-2-hydroxypropyl)amino]imidazo[1,2-b]pyridazin-3-yl}benzamide], for which the half-maximal inhibitory concentration (IC50) came out at 6.2 nM. On the same count and under the same terms, with `Cc1cc(-c2cnc3c(NCC(O)C(F)(F)F)cc(-c4ccnn4C)nn23)ccc1C(=O)NC1CC1` (racemic) [Example 208, (RS)—N-cyclopropyl-2-methyl-4-{6-(1-methyl-1H-pyrazol-5-yl)-8-[(3,3,3-trifluoro-2-hydroxypropyl)amino]imidazo[1,2-b]pyridazin-3-yl}benzamide] the figure was 2 nM; with `Cc1cc(-c2cnc3c(NCC(O)C(F)(F)F)cc(Sc4cccc(F)c4)nn23)ccc1C(=O)NC1CC1` (racemic) [Example 216, (RS)—N-cyclopropyl-4-{6-[(3-fluorophenyl)sulfanyl]-8-[(3,3,3-trifluoro-2-hydroxypropyl)amino]imidazo[1,2-b]pyridazin-3-yl}-2-methylbenzamide], under 1 nM. For the molecule `Cc1cc(-c2cnc3c(NCC4CN(C)CCO4)cc(-c4ccc(F)cc4)nn23)ccc1C(=O)NC1CC1` (racemic) [Example 229, (RS)—N-cyclopropyl-4-[6-(4-fluorophenyl)-8-{[(4-methylmorpholin-2-yl)methyl]amino}imidazo[1,2-b]pyridazin-3-yl]-2-methylbenzamide], the IC50 turned out to be 2.6 nM. The same measure, in the same setting: next, `Cc1cc(-c2cnc3c(NCC(C)(C)O)cc(OCC4CC4(F)F)nn23)ccc1C(=O)NC1CC1` (racemic) [Example 240, (RS)—N-cyclopropyl-4-{6-[(2,2-difluorocyclopropyl)methoxy]-8-[(2-hydroxy-2-methylpropyl)amino]imidazo[1,2-b]pyridazin-3-yl}-2-methylbenzamide]: 1.2 nM; `Cc1cc(-c2cnc3c(NCC(C)(C)O)cc(NC4CCNC4)nn23)ccc1C(=O)NC1CC1` (racemic) [Example 272, (RS)—N-cyclopropyl-4-{8-[(2-hydroxy-2-methylpropyl)amino]-6-(pyrrolidin-3-ylamino)imidazo[1,2-b]pyridazin-3-yl}-2-methylbenzamide]: 21.1 nM.
